Source: patent EP4603105A1, “PHARMACEUTICAL COMPOSITION CONTAINING CYCLIC COMPOUND HAVING SELECTIVE KRAS INHIBITORY EFFECT AGAINST HRAS AND NRAS” (CHUGAI SEIYAKU KABUSHIKI KAISHA, priority 2022, dated 2024)
Where a SMILES comes first, the peptide text is derived from it. Bridges are numbered along the chain shown (N, C = ends). [ ]: non-standard residue; d: D form. The star is where a group is joined. hPhe(3-Cl-4-CF3) = N[C@@H](CCc1ccc(C(F)(F)F)c(Cl)c1)C(=O)O; NPrPhe(4-CF3) = CCCN[C@@H](Cc1ccc(C(F)(F)F)cc1)C(=O)O; NEtPhe(4-Me) = CCN[C@@H](Cc1ccc(C)cc1)C(=O)O; NMeGly(cPent) = CN[C@H](C(=O)O)C1CCCC1; Hyp = O=C(O)[C@@H]1C[C@@H](O)CN1; NMeI = CC[C@H](C)[C@H](NC)C(=O)O; NMeD = CN[C@@H](CC(=O)O)C(=O)O; NMeL = CN[C@@H](CC(C)C)C(=O)O; Morpholide = C1CN(*)CCO1; NMeA = CN[C@@H](C)C(=O)O; Ac5c = NC1(C(=O)O)CCCC1; Aze = O=C(O)[C@@H]1CCN1; Ac4c = NC1(C(=O)O)CCC1; NEtG = CCNCC(=O)O; Sar = CNCC(=O)O

How the values were obtained:
[1] = target: GDP-bound NRAS wild-type protein (Homo sapiens, UniProt P01111); test: Binding to NRAS by surface plasmon resonance (SPR), KD and KD ratio to KRAS
Chain of GDP-bound NRAS wild-type protein (P01111 whole entry): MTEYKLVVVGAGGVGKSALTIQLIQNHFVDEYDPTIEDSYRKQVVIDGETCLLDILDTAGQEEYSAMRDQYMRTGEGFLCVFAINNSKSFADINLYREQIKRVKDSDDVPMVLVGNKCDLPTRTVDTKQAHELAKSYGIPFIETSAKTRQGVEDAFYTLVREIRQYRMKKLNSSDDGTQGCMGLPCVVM
In short: (§1)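 GDP-bound biotin-Avi RAS captured at ~100–300 RU, 30°C, pH 7.4 HBS containing 10 µM GDP, 10 mM MgCl2, 1 mM DTT, 0.01% Tween 20 and 4% DMSO. KD by 1:1 fitting.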

HRAS wild-type protein = HRAS wild-type protein (Homo sapiens, UniProt P01112); test: Binding to HRAS by surface plasmon resonance (SPR), KD and KD ratio to KRAS
Chain of HRAS wild-type protein (P01112 whole entry): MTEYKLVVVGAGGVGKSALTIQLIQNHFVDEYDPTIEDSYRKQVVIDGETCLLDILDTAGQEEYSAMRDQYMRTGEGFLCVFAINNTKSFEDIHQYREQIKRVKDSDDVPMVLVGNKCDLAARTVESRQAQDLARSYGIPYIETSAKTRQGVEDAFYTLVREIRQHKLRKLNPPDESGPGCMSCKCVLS
In short: as §1

[2] = tested on: human lung cancer strain NCI-H441; assay type: cell-based
In short: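 Readout: […] after the ATP-based reagent. Compound: serial dilutions in dimethyl sulfoxide.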

[3] = ratio of KD for GDP-bound NRAS wild-type protein to KD for KRAS
[4] = ratio of KD for HRAS wild-type protein to KD for KRAS
[5] = ratio of the KD value with respect to GDP-bound NRAS wild-type protein to the KD value with respect to KRAS
[6] = ratio of the KD value with respect to HRAS wild-type protein to the KD value with respect to KRAS
[7] = ratio of KD value for GDP-bound NRAS wild-type protein to KD value for KRAS (SPR)
[8] = ratio of KD value for HRAS wild-type protein to KD value for KRAS (SPR)

Structure (SMILES)	NRAS /KRAS [1, 3]	HRAS /KRAS (HRAS wild-type protein; [4])	IC50 [2]	NRAS /KRAS [1, 5]	HRAS /KRAS (HRAS wild-type protein; [6])	NRAS /KRAS [1, 7]	HRAS /KRAS (HRAS wild-type protein; [8])
CCCN1C(=O)[C@@H]2CCN2C(=O)[C@H](C)N(C)C(=O)[C@H]([C@@H](C)CC)NC(=O)[C@H](CC(C)C)N(C)C(=O)C[C@@H](C(=O)N2CCOCC2)N(C)C(=O)[C@H](C2CCCC2)N(C)C(=O)C2(CCC2)NC(=O)[C@@H]2CCCN2C(=O)[C@H](CCc2ccc(C(F)(F)F)c(Cl)c2)NC(=O)CN(C)C(=O)[C@@H]1Cc1ccc(C(F)(F)F)cc1 [PP0198] ([NMeL]I[NMeA][Aze][NPrPhe(4-CF3)][Sar][hPhe(3-Cl-4-CF3)]P[Ac4c][NMeGly(cPent)][NMeD]-Morpholide; lactam N-11)	C (A compound having a KD ratio of 0.1 or more and less than 3 is denoted as C)	B (a compound having 3 or more and less than 10 is denoted as B)	5.7 nM				
CC[C@H](C)[C@@H]1NC(=O)[C@H](CC(C)C)N(C)C(=O)C[C@@H](C(=O)N2CCOCC2)N(C)C(=O)[C@H]([C@@H](C)CC)N(C)C(=O)C2(CCCC2)NC(=O)[C@@H]2CCCN2C(=O)[C@H](CCc2ccc(C(F)(F)F)c(Cl)c2)NC(=O)CN(C)C(=O)[C@H](Cc2ccc(C)cc2)N(CC)C(=O)CN(C)C(=O)CN(C)C1=O [PP0043] ([NMeL]I[Sar][Sar][NEtPhe(4-Me)][Sar][hPhe(3-Cl-4-CF3)]P[Ac5c][NMeI][NMeD]-Morpholide; lactam N-11)	C (A compound having a KD ratio of 0.1 or more and less than 3 is denoted as C)	C (A compound having a KD ratio of 0.1 or more and less than 3 is denoted as C)	20.4 nM				
CCO[C@@H]1C[C@H]2C(=O)NC3(CC(C)(C)C3)C(=O)N(C)[C@@H](C3CCCC3)C(=O)N(C)[C@H](C(=O)N(C)CC)CC(=O)N(C)[C@@H](C3CC3)C(=O)N[C@@H]([C@@H](C)CC)C(=O)N(C)CC(=O)N(C)[C@H]3C/C=C\CCN(C3=O)[C@@H](Cc3ccc(C(F)(F)F)cc3)C(=O)N(C)CC(=O)N[C@@H](CCc3ccc(C(F)(F)F)c(OC)c3)C(=O)N2C1 [PP1981]			20.7 nM	A (a compound having 10 or more and less than 20 is denoted as A)	A (a compound having 10 or more and less than 20 is denoted as A)		
CCO[C@@H]1C[C@H]2C(=O)NC3(CCC(F)(F)CC3)C(=O)N(C)[C@@H](C3CCCC3)C(=O)N(C)[C@H](C(=O)N3CCOCC3)CC(=O)N(C)[C@@H](CC(C)C)C(=O)N[C@@H]([C@@H](C)CC)C(=O)N(C)CC(=O)N(C)[C@H]3CCCCCN(C3=O)[C@@H](Cc3ccc(C(F)(F)F)cc3)C(=O)N(C)CC(=O)N[C@@H](CCc3cc(F)c(C(F)(F)F)c(F)c3)C(=O)N2C1 [PP0728]			252 nM	B (a compound having 3 or more and less than 10 is denoted as B)	B (a compound having 3 or more and less than 10 is denoted as B)		
CCCN1C(=O)CN(C)C(=O)CN(CC)C(=O)[C@H]([C@@H](C)CC)NC(=O)[C@H](CC(C)C)N(C)C(=O)C[C@@H](C(=O)N2CCOCC2)N(C)C(=O)[C@H](C2CCCC2)N(C)C(=O)C2(CCCC2)NC(=O)[C@@H]2CCCN2C(=O)[C@H](CCc2ccc(C(F)(F)F)c(Cl)c2)NC(=O)CN(C)C(=O)[C@@H]1Cc1ccc(C(F)(F)F)cc1 [PP0145] ([NMeL]I[NEtG][Sar][NPrPhe(4-CF3)][Sar][hPhe(3-Cl-4-CF3)]P[Ac5c][NMeGly(cPent)][NMeD]-Morpholide; lactam N-11)	B (a compound having 3 or more and less than 10 is denoted as B)	B (a compound having 3 or more and less than 10 is denoted as B)	8.8 nM				
CCO[C@@H]1C[C@H]2C(=O)NC3(CCC3)C(=O)N(C)[C@@H](C3CCCC3)C(=O)N(C)[C@H](C(=O)N(C)C)CC(=O)N(C)[C@@H](Cc3ccc(C)cc3)C(=O)N[C@@H]([C@@H](C)CC)C(=O)N(C)CC(=O)N(C)[C@H]3CCCCCN(C3=O)[C@@H](Cc3ccc(C(F)(F)F)cc3)C(=O)N(C)CC(=O)N[C@@H](CCc3cc(F)c(C(F)(F)F)c(F)c3)C(=O)N2C1 [PP0943]	B (a compound having 3 or more and less than 10 is denoted as B)	B (a compound having 3 or more and less than 10 is denoted as B)	154 nM				
CCC[C@H]1C(=O)N[C@@H](C(CC)CC)C(=O)N(C)CC(=O)N(C)[C@H]2C/C=C\CCN(C2=O)[C@@H](Cc2ccc(C)cc2)C(=O)N(C)CC(=O)N[C@@H](CCc2ccc(C(F)(F)F)c(Cl)c2)C(=O)N2C[C@H](OCC)C[C@H]2C(=O)NC2(CC(C)(C)C2)C(=O)N(C)[C@@H](CC(C)(C)C)C(=O)N(C)[C@H](C(=O)N(C)C)CC(=O)N1C [PP2207]			25.8 nM	A (a compound having 10 or more and less than 20 is denoted as A)	A (a compound having 10 or more and less than 20 is denoted as A)		
CCCN1C(=O)CN(C)C(=O)CNC(=O)[C@H]([C@@H](C)CC)NC(=O)[C@H](CC(C)C)N(C)C(=O)C[C@@H](C(=O)N(C)C)N(C)C(=O)[C@H](C2CCCC2)N(C)C(=O)C2(CCCC2)NC(=O)[C@@H]2C[C@@H](OCC)CN2C(=O)[C@H](CCc2ccc(C(F)(F)F)c(Cl)c2)NC(=O)CN(C)C(=O)[C@@H]1Cc1ccc(C(F)(F)F)cc1 [PP0421] ([NMeL]IG[Sar][NPrPhe(4-CF3)][Sar][hPhe(3-Cl-4-CF3)][Hyp](Et)[Ac5c][NMeGly(cPent)][NMeD]-NMe2; lactam N-11)			2 nM	B (a compound having 3 or more and less than 10 is denoted as B)	C (A compound having a KD ratio of 0.1 or more and less than 3 is denoted as C)		
CCC[C@H]1C(=O)N[C@@H]([C@@H](C)CC)C(=O)N(C)CC(=O)N(C)[C@H]2C/C=C\CCN(C2=O)[C@@H](Cc2ccc(C(F)(F)F)cc2)C(=O)N(C)CC(=O)N[C@@H](CCc2ccc(C(F)(F)F)c(Cl)c2)C(=O)N2CCOC[C@H]2C(=O)NC2(CC(C)(C)C2)C(=O)N(C)[C@@H](C(CC)CC)C(=O)N(C)[C@H](C(=O)N(C)C)CC(=O)N1C [PP2929]	AA (a compound having 20 or more is denoted as AA)	A (a compound having 10 or more and less than 20 is denoted as A)	90.3 nM				
CCC[C@H]1C(=O)N[C@@H](C2CCOCC2)C(=O)N(C)CC(=O)N(C)[C@H]2C/C=C\CCN(C2=O)[C@@H](Cc2ccc(C(F)(F)F)cc2)C(=O)N(C)CC(=O)N[C@@H](CCc2ccc(C(F)(F)F)c(Cl)c2)C(=O)N2C[C@H](OCC)C[C@H]2C(=O)NC2(CC(C)(C)C2)C(=O)N(C)[C@@H](C2CCCC2)C(=O)N(C)[C@H](C(=O)N(C)C)CC(=O)N1C [PP3000]	AA (a compound having 20 or more is denoted as AA)	A (a compound having 10 or more and less than 20 is denoted as A)	63 nM				
CCO[C@@H]1C[C@H]2C(=O)NC3(CCC3)C(=O)N(C)[C@@H](C3CCCC3)C(=O)N(C)[C@H](C(=O)N3CCOCC3)CC(=O)N(C)[C@@H](C)C(=O)N[C@@H]([C@@H](C)CC)C(=O)N(C)CC(=O)N(C)[C@H]3CCCCCN(C3=O)[C@@H](Cc3ccc(C(F)(F)F)cc3)C(=O)N(C)CC(=O)N[C@@H](CCc3cc(F)c(C(F)(F)F)c(F)c3)C(=O)N2C1 [PP0474]			19.9 nM	B (a compound having 3 or more and less than 10 is denoted as B)	B (a compound having 3 or more and less than 10 is denoted as B)		
CC[C@H](C)[C@@H]1NC(=O)[C@H](CC(C)C)N(C)C(=O)C[C@@H](C(=O)N2CCOCC2)N(C)C(=O)[C@H](C2CCCC2)N(C)C(=O)C(C)(C)NC(=O)[C@@H]2CCCN2C(=O)[C@H](CCc2cc(F)c(C(F)(F)F)c(F)c2)NC(=O)CN(C)C(=O)[C@H](Cc2ccc(C(F)(F)F)cc2)N2CCCCC[C@@H](C2=O)N(C)C(=O)CN(C)C1=O [PP0503]			283 nM	A (a compound having 10 or more and less than 20 is denoted as A)	B (a compound having 3 or more and less than 10 is denoted as B)		
CCO[C@@H]1C[C@H]2C(=O)NC3(CCC3)C(=O)N(C)[C@@H](C3CCCC3)C(=O)N(C)[C@H](C(=O)N(C)C)CC(=O)N(C)[C@@H](CC3CCCC3)C(=O)N[C@@H]([C@@H](C)CC)C(=O)N(C)CC(=O)N(C)[C@H]3C/C=C\CCN(C3=O)[C@@H](Cc3ccc(C)cc3)C(=O)N(C)CC(=O)N[C@@H](CCc3ccc(Cl)c(Cl)c3)C(=O)N2C1 [PP1487]			46.6 nM			A (a compound having 10 or more and less than 20 is denoted as A)	A (a compound having 10 or more and less than 20 is denoted as A)
CC[C@H](C)[C@@H]1NC(=O)[C@H](CC(C)C)N(C)C(=O)C[C@@H](C(=O)N(C)C)N(C)C(=O)[C@H](C2CCCC2)N(C)C(=O)C2(CC(C)(C)C2)NC(=O)[C@@H]2CC(F)(F)CN2C(=O)[C@H](CCc2cc(F)c(C(F)(F)F)c(F)c2)NC(=O)CN(C)C(=O)[C@H](Cc2ccc(C(F)(F)F)cc2)N2CC/C=C\C[C@@H](C2=O)N(C)C(=O)CN(C)C1=O [PP1715]			2.7 nM			AA (a compound having 20 or more is denoted as AA)	A (a compound having 10 or more and less than 20 is denoted as A)
CCO[C@@H]1C[C@H]2C(=O)NC3(CCC3)C(=O)N(C)[C@@H](C3CCCC3)C(=O)N(C)[C@H](C(=O)N(C)C)CC(=O)N(C)[C@@H](CC(C)C)C(=O)N[C@@H]([C@@H](C)CC)C(=O)N(C)CC(=O)N(C)[C@H]3CCCCN(C3=O)[C@@H](Cc3ccc(C(F)(F)F)cc3)C(=O)N(C)CC(=O)N[C@@H](CCc3cc(F)c(C(F)(F)F)c(F)c3)C(=O)N2C1 [PP0580]			1.8 nM	C (A compound having a KD ratio of 0.1 or more and less than 3 is denoted as C)	C (A compound having a KD ratio of 0.1 or more and less than 3 is denoted as C)		
